{"source": "patent US8785600B2", "about": "“Anti-GCC antibody molecules and related compositions and methods” (Millennium Pharmaceuticals, Inc., priority 2009, dated 2014)", "key": {"[1]": {"target": "T1, GCC ECD truncation mutants expressed in 293 cells (Homo sapiens, UniProt P25092)", "T1 construct": "Truncation mutants of the GCC ECD were generated (FL mature peptide and 8 truncations); expressed in transfected cells; host or cells: 293 cells (lysates, immunoprecipitation then anti-FLAG western blot)", "T1 sequence (P25092 33-430, stated change not applied)": "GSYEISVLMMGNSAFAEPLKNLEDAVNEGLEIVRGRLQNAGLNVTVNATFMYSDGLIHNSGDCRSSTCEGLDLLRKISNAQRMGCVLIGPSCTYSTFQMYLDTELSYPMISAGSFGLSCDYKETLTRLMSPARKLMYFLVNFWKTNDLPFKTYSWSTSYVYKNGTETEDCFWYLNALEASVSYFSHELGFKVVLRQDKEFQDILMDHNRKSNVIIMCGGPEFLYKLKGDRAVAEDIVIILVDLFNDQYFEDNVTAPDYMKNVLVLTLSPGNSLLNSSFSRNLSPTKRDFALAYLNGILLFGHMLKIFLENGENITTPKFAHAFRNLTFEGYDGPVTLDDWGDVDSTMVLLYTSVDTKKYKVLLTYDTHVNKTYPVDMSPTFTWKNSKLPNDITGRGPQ", "test": "Binding to GCC ECD truncation mutants (IP / Western blot)", "settings": "Δ1-32"}, "[2]": {"test_system": "CT26 hGCC/luc #32 cells", "test": "Pilot efficacy study with naked antibody in CT26 hGCC/luc #32 disseminated model", "settings": "for Lung weight, T test P vs. vehicle: end of study"}, "[3]": {"test_system": "GCC-ECD-Fc (TOK107-hIg)", "sequence (as listed by the source)": "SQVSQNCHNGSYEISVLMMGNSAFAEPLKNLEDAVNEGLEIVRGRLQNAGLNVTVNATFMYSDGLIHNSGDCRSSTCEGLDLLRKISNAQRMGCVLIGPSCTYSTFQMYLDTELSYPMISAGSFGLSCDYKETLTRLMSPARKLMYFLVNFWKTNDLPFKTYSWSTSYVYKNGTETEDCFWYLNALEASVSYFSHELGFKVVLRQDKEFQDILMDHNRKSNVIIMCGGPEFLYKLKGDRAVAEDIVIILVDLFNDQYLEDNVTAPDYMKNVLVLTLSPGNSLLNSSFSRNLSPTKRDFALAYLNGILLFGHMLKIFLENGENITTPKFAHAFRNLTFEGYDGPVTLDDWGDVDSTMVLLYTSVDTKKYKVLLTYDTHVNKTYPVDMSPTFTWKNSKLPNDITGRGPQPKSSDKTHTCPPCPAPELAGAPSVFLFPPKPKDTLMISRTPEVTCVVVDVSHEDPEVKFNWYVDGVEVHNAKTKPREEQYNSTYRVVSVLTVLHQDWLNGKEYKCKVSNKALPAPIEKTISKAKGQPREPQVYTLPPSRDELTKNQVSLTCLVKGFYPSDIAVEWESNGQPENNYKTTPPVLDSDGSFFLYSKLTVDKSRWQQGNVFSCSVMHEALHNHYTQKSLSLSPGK", "test": "BIACORE T100 affinity measurement", "format": "binding, human", "settings": "for ka (M^−1s^−1) / kd (s^−1): Avg. (95% Conf. Int.); for ka / kd: single replicates, immobilized mAb, 22° C.", "method": "Step 1: MAb 5F9 (Prep A) was diluted to 20 μg/mL in 10 mM sodium acetate, pH 4.0 and Reference 5F9 MAb (Prep B) was diluted to 10 μg/mL in 10 mM sodium acetate, pH 4.0. Each mAb was covalently immobilized to several CM4 BIACORE chips using standard amine coupling. For each CM4 chip prepared, Prep A 5F9 was immobilized over two flow cells at around 75-100 RU while Prep B 5F9 was immobilized to one flow cell at around 70-80 RU. The remaining fourth flow cell of each CM4 chip was used as the reference flow cell.\nStep 2: The stock concentration of GCC-ECD-Fc (TOK107-hIg) was determined using the methods detailed by Pace et al. in Protein Science, 4:2411 (1995), and Pace and Grimsley in Current Protocols in Protein Science 3.1.1-3.1.9 (2003).\nStep 3: For each prepared CM4 chip described in Step 1, GCC-ECD-Fc was injected for 2 minutes at a concentration range of 202 nM-1.6 nM (2× serial dilution) followed by a 7 minute dissociation. Samples were randomly injected in triplicate with several buffer inject cycles interspersed for double referencing. […] A flow rate of 100 μL/min was used for all experiments and all surfaces were regenerated with a 20 second pulse of 10 mM Glycine-HCl (pH 2.0). All samples were prepared in the running buffer which was Hepes-buffered saline, 0.005% polysorbate 20, pH 7.4 (HBS-P) with 100 μg/mL of BSA added.\nStep 4: All sensorgram (plot of surface plasmon resonance vs time) data were processed with Scrubber 2.0 software (BioLogic Software, Campbell, Australia) and globally fit to a 1:1 interaction model including a term for the mass transport constant km using CLAMP™ software (Myszka and Morton Trends Biochem. Sci. 23:149-150 (1998)).\nThe 1:1 model provided a very good fit to the data as long as the mAb immobilization levels were kept low enough so that the Rmax resulting from the global analysis of the sensorgram data was at least below 12 RU for each surface. […] Data from two flow cells of GCC-ECD-Fc binding to Prep A 5F9 from the same CM4 chip were simultaneously fit whenever possible, however. […] This isn't surprising due to the fact that GCC-ECD-Fc is a bivalent construct and a higher surface density of immobilized mAb most likely increases the probability that the GCC-ECD-Fc binds avidly to the surface. Replicates reported for this study include only those data that fit well to the 1:1 interaction model. The resulting KD's and rate constants of all replicates for Prep A 5F9 and the Prep B reference mAb are listed in Table 9 and Table 10, respectively."}}, "note": "Several values for one entry are separate records, joined by “and”; a condition that tells them apart may be missing. Equal entries are not always repeated."}
{"substance": "5F9: Human anti-GCC mAb (IgG2, kappa) of hybridoma 5F9, ATCC PTA-8132; VH SEQ ID NO:18, VL SEQ ID NO:20; also engineered as IgG1", "values": [{"measurement": "Binding to GCC ECD truncation mutant", "setting": "[1]", "value": "binds cells with the Δ1-32 mutation"}, {"measurement": "Lung weight, T test P vs. vehicle", "setting": "[2]; 10 mg/kg", "value": "< 0.01"}, {"measurement": "In vivo MRI of lungs", "setting": "[2]; 40 mg/kg", "value": "normal lung presentation was seen without evidence of tumor"}, {"measurement": "T/C (treatment/control)", "setting": "[2]; 40 mg/kg and 10 mg/kg, 1×10^5 cells/mouse, day 34p.i, vs vehicle", "value": "0.04 to 0.05"}, {"measurement": "Lung weight, T test P vs. vehicle", "setting": "[2]; 40 mg/kg", "value": "< 0.05"}, {"measurement": "T/C compared to the 209 group", "setting": "[2]; 1×10^5 cells/mouse, day 34p.i", "value": "0.18 to 0.14"}, {"measurement": "Benefit in 5×10^5 groups", "setting": "[2]; 5×10^5 cells/mouse", "value": "No benefit was seen"}, {"measurement": "ka (M^−1s^−1)", "setting": "[3]; listed as Prep A 5F9", "value": "1.10 (0.13) × 10^5 M^−1s^−1"}, {"measurement": "kd (s^−1)", "setting": "[3]; listed as Prep A 5F9", "value": "1.46 (0.59) × 10^−5 s^−1"}, {"measurement": "ka (M^−1s^−1)", "setting": "[3]; listed as Prep B 5F9", "value": "1.07 (0.25) × 10^5 M^−1s^−1"}, {"measurement": "kd (s^−1)", "setting": "[3]; listed as Prep B 5F9", "value": "1.13 (0.54) × 10^−5 s^−1"}, {"measurement": "ka", "setting": "[3]; listed as Prep A 5F9", "value": "96400 M⁻¹ s⁻¹ and 106000 M⁻¹ s⁻¹ and 120000 M⁻¹ s⁻¹ and 107000 M⁻¹ s⁻¹ and 122000 M⁻¹ s⁻¹"}, {"measurement": "kd", "setting": "[3]; listed as Prep A 5F9", "value": "1.77e-05 s⁻¹ and 1.19e-05 s⁻¹ and 1.1e-05 s⁻¹ and 2.15e-05 s⁻¹ and 1.11e-05 s⁻¹"}, {"measurement": "ka", "setting": "[3]; listed as Prep B 5F9", "value": "96800 M⁻¹ s⁻¹ and 120000 M⁻¹ s⁻¹ and 90900 M⁻¹ s⁻¹ and 121000 M⁻¹ s⁻¹"}, {"measurement": "kd", "setting": "[3]; listed as Prep B 5F9", "value": "7.64e-06 s⁻¹ and 1.24e-05 s⁻¹ and 9.57e-06 s⁻¹ and 1.54e-05 s⁻¹"}]}
